Experimental data as given in patent publication US4412994A, “Mannich-base hydroxamic acid prodrugs, compositions and use” (INTERx Research Corporation, priority 1982, dated 1983).

Tested on: mouse ear
Experiment: mouse ear assay (croton oil-induced ear inflammation, anti-inflammatory activity)
Format: in vivo, male ddY strain mouse
Conditions: topical, 0.05 ml in acetone containing 2% croton oil on right ear; 3 hours; linear regression of data at 2×10^-2, 4×10^-2 and 8×10^-2 M; groups of 15 mice
Procedure: G. Van Arman, Clin. Pharm. […] Details of the mouse ear assay are as follows:
The test animal was the male ddY strain mouse (20-25 grams each). Solutions of the test compound in acetone containing 2% croton oil (i.e. a solution containing 98 parts of acetone to 2 parts of croton oil) were prepared for varying concentrations of the test compound. Then, the test animals were anesthetized and 0.05 ml of the selected test solution was applied in 0.025 ml aliquots, one each to the anterior and posterior surface of the right ear of each mouse. Three hours after application, the mice were sacrificed via ether inhalation and both ears were removed from each mouse. Then, one circular section, 8 mm in diameter, was taken from each ear using a leather punch. The increase in weight caused by the irritant was determined by subtracting the weight of the untreated left ear section from that of the right ear section. Drug effects expressed as percent inhibition were determined at each selected concentration (molarity) of each test compound according to the following equation: [formula]
Groups of 15 mice were treated at each dosage level of each test compound. The control group consisted of 30 mice. In the control group, the right ear of each mouse was treated with the croton oil/acetone solution described above but not containing test compound, while the left ear of each control mouse was untreated.
Indomethacin, indomethacin hydroxamic acid and the compounds of Examples 3, 4 and 5 were tested according to the mouse ear assay described above.

SMILES	ED50
COc1ccc2c(c1)c(CC(=O)N(O)CN1CCOCC1)c(C)n2C(=O)c1ccc(Cl)cc1 [α-[1-(4'-Chlorobenzoyl)-5-methoxy-2-methylindol-3-yl]-N-(morpholinomethyl)acetohydroxamic Acid]	0.054 M
COc1ccc2c(c1)c(CC(=O)O)c(C)n2C(=O)c1ccc(Cl)cc1 [Indomethacin, 1-(4'-Chlorobenzoyl)-5-methoxy-2-methyl-3-indolylacetic Acid, reference compound]	0.061 M
CCN(CC)CN(O)C(=O)Cc1c(C)n(C(=O)c2ccc(Cl)cc2)c2ccc(OC)cc12 [α-[1-(4'-Chlorobenzoyl)-5-methoxy-2-methylindol-3-yl]-N-(N', N'-diethylaminomethyl)acetohydroxamic Acid]	0.041 M
COc1ccc2c(c1)c(CC(=O)N(O)CN1CCN(C)CC1)c(C)n2C(=O)c1ccc(Cl)cc1 [α-[1-(4'-Chlorobenzoyl)-5-methoxy-2-methylindol-3-yl]-N-[(4-methylpiperazin-1-yl)methyl]acetohydroxamic Acid]	0.027 M
COc1ccc2c(c1)c(CC(=O)NO)c(C)n2C(=O)c1ccc(Cl)cc1 [Indomethacin hydroxamic acid, α-[1-(4'-Chlorobenzoyl)-5-methoxy-2-methylindol-3-yl]acetohydroxamicAcid]	0.096 M
